Assay results published in patent US20250313535A1, “ALPHA 4 BETA 7 INTEGRIN MODULATORS AND USES THEREOF” (DICE MOLECULES SV, INC., priority 2022, published 2025).
Read-outs that look alike come from different tables or passages of the source.

Experiments:
α4β7 integrin = α4β7 integrin (Homo sapiens (Human), UniProt P13612+P26010); experiment: Integrin Adhesion Assay: Protocol 4 (MAdCAM-coated plate, RPMI-8866 cells with stable LOF mutation of the ITGB1 gene); type: cell-based
How it was run: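 RPMI-8866 cells with CRISPR/Cas9 knockout of ITGB1 (2×10^6/mL) were added to MAdCAM-coated wells with compound (1% DMSO) in HEPES/NaCl buffer with 1 mM MnCl2, 0.1 mM CaCl2 and 1% BSA, then incubated 1 h at 37 °C. After four washes, adherent cells were quantified by CellTiter-Glo luminescence. Percent inhibition versus DMSO and control compound was fitted to 4-parameter curves.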

α4β1 integrin = α4β1 integrin (Homo sapiens (Human), UniProt P05556+P13612); experiment: Integrin Adhesion Assay: Protocol 5 (VCAM-coated plate, RPMI-8866 cells with stable LOF mutation of the ITGB7 gene); type: cell-based
Chain of α4β1 integrin (P13612 34-1032): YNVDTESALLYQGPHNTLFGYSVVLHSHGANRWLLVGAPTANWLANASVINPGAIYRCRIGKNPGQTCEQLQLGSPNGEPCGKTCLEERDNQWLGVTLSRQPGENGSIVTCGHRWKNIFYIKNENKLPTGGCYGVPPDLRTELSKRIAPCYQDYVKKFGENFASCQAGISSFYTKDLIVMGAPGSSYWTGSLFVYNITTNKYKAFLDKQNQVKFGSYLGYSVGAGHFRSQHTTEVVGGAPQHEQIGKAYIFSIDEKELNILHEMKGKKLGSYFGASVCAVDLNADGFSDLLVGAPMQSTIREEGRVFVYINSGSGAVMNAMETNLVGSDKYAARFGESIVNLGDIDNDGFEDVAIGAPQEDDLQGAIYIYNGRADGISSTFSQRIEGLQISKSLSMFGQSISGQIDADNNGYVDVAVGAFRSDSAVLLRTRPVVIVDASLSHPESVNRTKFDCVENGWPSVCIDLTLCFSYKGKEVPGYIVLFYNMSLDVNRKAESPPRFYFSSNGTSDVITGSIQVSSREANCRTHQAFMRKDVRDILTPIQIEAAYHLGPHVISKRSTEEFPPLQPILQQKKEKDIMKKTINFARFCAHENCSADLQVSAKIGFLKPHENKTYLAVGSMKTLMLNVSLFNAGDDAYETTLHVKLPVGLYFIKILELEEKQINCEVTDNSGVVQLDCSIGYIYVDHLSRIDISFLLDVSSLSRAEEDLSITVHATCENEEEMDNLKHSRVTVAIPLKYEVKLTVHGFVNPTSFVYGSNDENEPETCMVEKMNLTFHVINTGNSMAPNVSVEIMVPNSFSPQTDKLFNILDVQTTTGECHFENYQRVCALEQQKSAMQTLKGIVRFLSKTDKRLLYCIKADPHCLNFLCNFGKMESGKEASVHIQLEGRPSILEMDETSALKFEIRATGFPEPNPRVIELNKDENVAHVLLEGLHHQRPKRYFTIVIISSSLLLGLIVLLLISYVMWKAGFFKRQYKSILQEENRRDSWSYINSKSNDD
Chain of α4β1 integrin (P05556 21-798): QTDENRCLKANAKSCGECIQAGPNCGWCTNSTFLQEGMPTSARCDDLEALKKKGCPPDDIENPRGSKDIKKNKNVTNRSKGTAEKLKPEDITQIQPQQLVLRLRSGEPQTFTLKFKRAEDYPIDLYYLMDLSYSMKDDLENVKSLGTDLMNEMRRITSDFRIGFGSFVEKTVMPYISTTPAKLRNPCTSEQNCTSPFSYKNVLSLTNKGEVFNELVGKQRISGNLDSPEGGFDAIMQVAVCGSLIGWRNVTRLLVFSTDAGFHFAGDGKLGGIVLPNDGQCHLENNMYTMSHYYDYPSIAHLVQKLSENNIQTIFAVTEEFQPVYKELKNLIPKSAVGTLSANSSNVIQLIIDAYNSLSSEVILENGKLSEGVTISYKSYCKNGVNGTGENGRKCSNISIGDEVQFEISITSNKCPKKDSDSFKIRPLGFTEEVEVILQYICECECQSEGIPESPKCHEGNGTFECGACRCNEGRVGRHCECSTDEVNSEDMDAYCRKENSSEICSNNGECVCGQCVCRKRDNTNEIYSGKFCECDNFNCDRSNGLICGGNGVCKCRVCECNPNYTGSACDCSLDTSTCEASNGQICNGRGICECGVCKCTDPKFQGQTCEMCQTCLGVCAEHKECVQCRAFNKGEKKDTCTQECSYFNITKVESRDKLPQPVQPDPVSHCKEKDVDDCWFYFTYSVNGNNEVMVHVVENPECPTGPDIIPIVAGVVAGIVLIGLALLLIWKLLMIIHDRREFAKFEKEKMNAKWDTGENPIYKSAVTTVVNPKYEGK
How it was run: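 RPMI-8866 B cells with CRISPR/Cas9 ITGB7 knockout (clonal, verified by flow cytometry) adhered to VCAM-coated wells for 1 h at 37° C in HEPES/NaCl buffer with 1 mM MnCl2, 0.1 mM CaCl2, 1% BSA, 1% DMSO. Bound cells quantified by CellTiter-Glo luminescence after washing; % inhibition versus DMSO and control, 4-parameter fit.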

[1] = Protocol 4, RPMI-8866 cells with LOF mutation of ITGB1, MAdCAM, read-out: Mean IC50 α4β7 KO
[2] = Protocol 5, RPMI-8866 cells with LOF mutation of ITGB7, VCAM, read-out: Mean IC50 α4β1 KO
[3] = RPMI-8866 cells with stable LOF mutation of the ITGB1 gene, read-out: Mean IC50 α4β7 KO^a
[4] = RPMI-8866 cells with stable LOF mutation of the ITGB7 gene, read-out: Mean IC50 α4β1 KO^b

Chain of α4β7 integrin (P13612 34-1032): as the sequence (P13612 34-1032) above
Chain of α4β7 integrin (P26010 20-798): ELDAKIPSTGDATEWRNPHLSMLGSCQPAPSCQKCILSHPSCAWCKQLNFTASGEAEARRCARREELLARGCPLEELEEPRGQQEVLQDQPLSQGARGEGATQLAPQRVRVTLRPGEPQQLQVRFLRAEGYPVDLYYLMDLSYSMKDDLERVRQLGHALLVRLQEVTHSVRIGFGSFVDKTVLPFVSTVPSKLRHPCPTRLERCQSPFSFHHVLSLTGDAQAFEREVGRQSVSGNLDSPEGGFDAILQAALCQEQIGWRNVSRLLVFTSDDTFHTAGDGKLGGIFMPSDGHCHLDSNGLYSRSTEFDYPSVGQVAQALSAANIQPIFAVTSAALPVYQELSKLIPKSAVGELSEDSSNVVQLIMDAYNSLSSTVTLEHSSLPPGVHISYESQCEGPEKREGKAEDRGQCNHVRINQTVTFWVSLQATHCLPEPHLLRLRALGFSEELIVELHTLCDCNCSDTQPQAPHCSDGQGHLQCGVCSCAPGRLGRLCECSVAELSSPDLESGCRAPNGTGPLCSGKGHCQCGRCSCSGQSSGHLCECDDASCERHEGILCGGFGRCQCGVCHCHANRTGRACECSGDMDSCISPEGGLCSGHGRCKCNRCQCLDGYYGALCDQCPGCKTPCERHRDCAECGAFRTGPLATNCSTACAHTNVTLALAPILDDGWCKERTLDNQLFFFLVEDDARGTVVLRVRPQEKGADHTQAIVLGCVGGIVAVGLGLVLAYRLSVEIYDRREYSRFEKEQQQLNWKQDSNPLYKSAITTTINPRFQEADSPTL

Row | IC50 (α4β7 integrin; [1]) [nM] | IC50 (α4β1 integrin; [2]) [nM] | IC50 (α4β7 integrin; [3]) [nM] | IC50 (α4β1 integrin; [4]) [nM] | Structure (SMILES)
1 | 10 to 100 | > 1000 | – | – | COc1ccc(CN2CCC(F)CC2)c(C(F)(F)F)c1-c1cccc2c(C[C@H](NC(=O)C3(C(F)(F)F)CCN(CC(F)(F)F)CC3)C(=O)O)cccc12 [Compound 821]
2 | < 10 | 100 to 1000 | – | – | O=C(O)[C@H](Cc1cccc2c(-c3ncc(CN4CCC5(CCC5)C4)c4ccccc34)cccc12)NC(=O)C1(C(F)(F)F)CCN(CC(F)F)CC1 [Compound 909]
3 | 10 to 100 | > 1000 | – | – | O=C(O)[C@H](Cc1cccc2c(-c3ncc(CN4CC5CCC(C4)O5)c4ccccc34)cccc12)NC(=O)C1(C(F)(F)F)CCN(CC(F)(F)F)CC1 [Compound 872]
4 | < 10 | 100 to 1000 | – | – | COc1ccc(CCN2CCCCC2)c(C(F)(F)F)c1-c1cccc2c(C[C@H](NC(=O)c3c(C)cccc3F)C(=O)O)cccc12 [Compound 1004]
5 | < 10 | > 1000 | – | – | COc1cccc(CCN2CCC[C@H](F)C2)c1-c1cccc2c(C[C@H](NC(=O)C3(C(F)(F)F)CCN(CC(F)F)CC3)C(=O)O)cccc12 [Compound 969]
6 | 100 to 1000 | > 1000 | – | – | COCc1ccc2c(c1)c(C(F)(F)F)c(-c1cccc3c(CC(NC(=O)c4c(F)cccc4F)C(=O)O)cccc13)c(=O)n2C (stereo not shown) [Compound 1041]
7 | < 10 | 100 to 1000 | – | – | C[C@@H]1CN(Cc2cnc(-c3cccc4c(C[C@H](NC(=O)C5(C(F)(F)F)CCN(CC(F)(F)F)CC5)C(=O)O)cccc34)c3ccccc23)C[C@H](C)N1C1CC1 [Compound 892]
8 | < 10 | 100 to 1000 | – | – | COc1cc(CN2CCCCC2)cc(Cl)c1-c1cccc2c(C[C@H](NC(=O)C3(C(F)(F)F)CCN(CC(F)(F)F)CC3)C(=O)O)cccc12 [Compound 804]
9 | < 10 | > 1000 | – | – | O=C(O)[C@H](Cc1cccc2c(-c3ncc(CN4CCC[C@H](F)C4)cc3C3CC3)cccc12)NC(=O)C1(C(F)(F)F)CCN(CC(F)(F)F)CC1 [Compound 950]
10 | < 10 | > 1000 | – | – | O=C(O)[C@H](Cc1cccc2c(-c3ncc(CN4CCOCC45CC5)c4ccccc34)cccc12)NC(=O)C1(C(F)(F)F)CCN(CC(F)(F)F)CC1 [Compound 870]
11 | 10 to 100 | 10 to 100 | – | – | Cn1c(=O)c(-c2cccc3c(C[C@H](NC(=O)C4(C(F)(F)F)CCN(CC(F)F)CC4)C(=O)O)cccc23)c(C(F)(F)F)c2cc(CN3CCC(F)(F)CC3)ccc21 [Compound 836]
12 | < 10 | 100 to 1000 | – | – | CC1(C)CCN(Cc2cnc(-c3cccc4c(C[C@H](NC(=O)C5(C(F)(F)F)CCN(CC(F)F)CC5)C(=O)O)cccc34)c3ccccc23)CC1 [Compound 861]
13 | 10 to 100 | > 1000 | – | – | COc1cccc(CN2CCC(F)CC2)c1-c1cccc2c(C[C@H](NC(=O)C3(C(F)(F)F)CCN(CC(F)(F)F)CC3)C(=O)O)cccc12 [Compound 827]
14 | 100 to 1000 | > 1000 | – | – | COc1ccc(CN2CCC(F)(F)CC2)c(C(F)(F)F)c1-c1cccc2c(C[C@H](NC(=O)c3c(C)cccc3F)C(=O)O)cccc12 [Compound 823]
15 | < 10 | 100 to 1000 | – | – | COc1ccc(CN(C)C)c(Cl)c1-c1cccc2c(C[C@H](NC(=O)c3c(C)cccc3F)C(=O)O)cccc12 [Compound 1038]
16 | 100 to 1000 | > 1000 | – | – | Cc1cccc(F)c1C(=O)N[C@@H](Cc1cccc2c(-c3cccc4c3OCC4)cccc12)C(=O)O [Compound 1002]
17 | < 10 | 100 to 1000 | – | – | COc1cccc(OCCN2CCCCC2)c1-c1cccc2c(C[C@H](NC(=O)c3c(C)cccc3F)C(=O)O)cccc12 [Compound 999]
18 | < 10 | > 1000 | – | – | O=C(O)[C@H](Cc1cccc2c(-c3ncc(CN4CCC4)c4ccccc34)cccc12)NC(=O)C1(C(F)(F)F)CCN(CC(F)F)CC1 [Compound 920]
19 | < 10 | > 1000 | – | – | O=C(O)[C@H](Cc1cccc2c(-c3ncc(CN4CCC[C@@H](F)C4)c4ccccc34)cccc12)NC(=O)C1(C(F)(F)F)CCN(CC(F)F)CC1 [Compound 860]
20 | < 10 | 100 to 1000 | – | – | COc1cccc(CCN2CCC(F)(F)CC2)c1-c1cccc2c(C[C@H](NC(=O)C3(C(F)(F)F)CCN(CC(F)F)CC3)C(=O)O)cccc12 [Compound 976]
21 | < 10 | 100 to 1000 | – | – | Cc1cccc(F)c1C(=O)N[C@@H](Cc1cccc2c(-c3c(C(F)(F)F)c4cc(CN5CCCCC5)ccc4n(C)c3=O)cccc12)C(=O)O [Compound 1030]
22 | < 10 | 100 to 1000 | – | – | COc1cccc(CN2CCC(C)(C)CC2)c1-c1cccc2c(C[C@H](NC(=O)c3c(C)cccc3F)C(=O)O)cccc12 [Compound 1017]

The next lines start with the molecule.

Row | Structure (SMILES) | IC50 (α4β7 integrin; [1]) [nM] | IC50 (α4β1 integrin; [2]) [nM] | IC50 (α4β7 integrin; [3]) [nM] | IC50 (α4β1 integrin; [4]) [nM]
23 | Cn1c(=O)c(-c2cccc3c(C[C@H](NC(=O)C4(C(F)(F)F)CCN(C5(C(F)(F)F)COC5)CC4)C(=O)O)cccc23)c(C(F)(F)F)c2ccccc21 [Compound 491] | – | – | 100 to 1000 | > 1000
24 | COc1ccc(CN2CCC(F)(F)CC2)c(OC)c1-c1cccc2c(C[C@H](NC(=O)c3c(C)cc(NCC(F)(F)F)cc3F)C(=O)O)cccc12 [Compound 608] | – | – | 10 to 100 | > 1000
25 | Cn1c(=O)c(-c2cccc3c(C[C@H](NC(=O)C4(C(F)(F)F)CCN(C5COCC5(F)F)CC4)C(=O)O)cccc23)c(C(F)(F)F)c2ccccc21 (stereo partly shown) [Compound 512] | – | – | < 10 | 100 to 1000
26 | Cn1c(=O)c(-c2cccc3c(C[C@H](NC(=O)C4(C(F)(F)F)CCN(CC#N)CC4)C(=O)O)cccc23)c(C(F)(F)F)c2ccccc21 [Compound 538] | – | – | 10 to 100 | > 1000
27 | CCc1cccc(F)c1C(=O)N[C@@H](Cc1cccc2c(-c3c(CN4CCCCC4)cccc3OC)cccc12)C(=O)O [Compound 546] | – | – | < 10 | 100 to 1000
28 | COc1ccc2c(c1-c1cccc3c(C[C@H](NC(=O)C4(C(F)(F)F)CCN(CC(F)(F)F)CC4)C(=O)O)cccc13)CCN(C)C2 [Compound 737] | < 10 | 100 to 1000 | – | –
29 | Cn1c(=O)c(-c2cccc3c(C[C@H](NC(=O)C4(C(F)(F)F)CCN(C5CC(F)(F)C5)CC4)C(=O)O)cccc23)c(C(F)(F)F)c2ccccc21 [Compound 493] | – | – | 10 to 100 | 100 to 1000
30 | O=C(O)[C@H](Cc1cccc2c(-c3ncc(CN4CCC(C(F)(F)F)CC4)c4ccccc34)cccc12)NC(=O)C1(C(F)(F)F)CCN(C2COC2)CC1 [Compound 580] | – | – | < 10 | > 1000
31 | COc1ccc(CN(C)C)c(OC)c1-c1cccc2c(C[C@H](NC(=O)c3c(C)cccc3CN3CCC(F)(F)CC3)C(=O)O)cccc12 [Compound 588] | – | – | 100 to 1000 | > 1000
32 | COc1cccc(CN2CCCCC2)c1-c1cccc2c(C[C@H](NC(=O)c3c(F)cccc3Cl)C(=O)O)cccc12 [Compound 674] | – | – | < 10 | 100 to 1000
33 | COc1ccc(CN2CCCCC2(C)C)c(OC)c1-c1cccc2c(C[C@H](NC(=O)c3c(C)cccc3F)C(=O)O)cccc12 [Compound 630] | – | – | < 10 | 100 to 1000
34 | COCCN1CCC(C(=O)N[C@@H](Cc2cccc3c(-c4c(C(F)(F)F)c5ccccc5n(C)c4=O)cccc23)C(=O)O)(C(F)(F)F)CC1 [Compound 502] | – | – | < 10 | 100 to 1000
35 | COc1ccc(CN2CCCC2)c(OC)c1-c1cccc2c(C[C@H](NC(=O)C3(C(F)(F)F)CCN(CC(F)(F)F)CC3)C(=O)O)cccc12 [Compound 782] | < 10 | 100 to 1000 | – | –
36 | COc1c(CN2CCCCC2)ccc(Cl)c1-c1cccc2c(C[C@H](NC(=O)C3(C(F)(F)F)CCN(CC(F)(F)F)CC3)C(=O)O)cccc12 [Compound 799] | < 10 | > 1000 | – | –
37 | COc1ccc(CN2CCC(F)(F)C2)c(OC)c1-c1cccc2c(C[C@H](NC(=O)C3(C(F)(F)F)CCN(CC(F)(F)F)CC3)C(=O)O)cccc12 [Compound 783] | 10 to 100 | > 1000 | – | –
38 | Cn1c(=O)c(-c2cccc3c(C[C@H](NC(=O)C4(C(F)(F)F)CCN(CC(F)F)CC4)C(=O)O)cccc23)c(C(F)(F)F)c2ccccc21 (racemic) [Compound 480] | – | – | < 10 | 100 to 1000
39 | COc1ccc(CN2CCC(F)(F)CC2)c(OC)c1-c1cccc2c(C[C@H](NC(=O)C3(C(F)(F)F)CCN([C@H]4COC[C@H]4F)CC3)C(=O)O)cccc12 [Compound 573] | – | – | < 10 | > 1000
40 | COc1ccc2cc(CN3CCCCC3)cnc2c1-c1cccc2c(C[C@H](NC(=O)C3(C(F)(F)F)CCN(CC(F)(F)F)CC3)C(=O)O)cccc12 [Compound 733] | 10 to 100 | 100 to 1000 | – | –
41 | CN(C)CCc1ccc2c(c1)c(C(F)(F)F)c(-c1cccc3c(C[C@H](NC(=O)c4c(F)cccc4CN4CCC(F)(F)CC4)C(=O)O)cccc13)c(=O)n2C [Compound 711] | < 10 | 100 to 1000 | – | –
42 | COc1cc2c(c(OC)c1-c1cccc3c(C[C@H](NC(=O)c4c(C)cccc4F)C(=O)O)cccc13)CN(CC(F)(F)F)CC2 [Compound 475] | – | – | < 10 | 100 to 1000
43 | CC1(C(=O)N[C@@H](Cc2cccc3c(-c4ncc(CN5CCCCC5)c5ccccc45)cccc23)C(=O)O)CC2CCC(C1)N2C1COC1 (stereo partly shown) [Compound 685] | – | – | 10 to 100 | > 1000
44 | COc1ccc(CN2CCC(F)(F)CC2)c(OC)c1-c1cccc2c(C[C@H](NC(=O)C3(C(F)(F)F)CCN([C@@H]4COC[C@H]4F)CC3)C(=O)O)cccc12 [Compound 670] | – | – | 10 to 100 | 100 to 1000
